The source made the active and inactive calls. No cut-off for these calls is given here.

Data set [1] is described as follows: Cmax in NMRI mouse at 1 mg/kg, iv and 5 mg/kg, po by LC-MS/MS analysis. The data set is classed as ADME, organism-based. Conditions: in vivo.
Data set [2] can be described thus: Volume of distribution at steady state in NMRI mouse at 1 mg/kg, iv by LC-MS/MS analysis. Format: ADME, organism-based. More on the design: dose 1 mg/kg, route intravenous. The note with it: in vivo, read-out: Vdss.
The subject of a further data set is Plasmodium falciparum. As to the kind of experiment: Antimalarial activity against mefloquine-resistant Plasmodium falciparum TM91C235. The data set is classed as functional, organism-based.
For another data set, the target named is T1, Cytochrome P450 2C8 (Homo sapiens, UniProt P10632).
T1 sequence (P10632 whole entry): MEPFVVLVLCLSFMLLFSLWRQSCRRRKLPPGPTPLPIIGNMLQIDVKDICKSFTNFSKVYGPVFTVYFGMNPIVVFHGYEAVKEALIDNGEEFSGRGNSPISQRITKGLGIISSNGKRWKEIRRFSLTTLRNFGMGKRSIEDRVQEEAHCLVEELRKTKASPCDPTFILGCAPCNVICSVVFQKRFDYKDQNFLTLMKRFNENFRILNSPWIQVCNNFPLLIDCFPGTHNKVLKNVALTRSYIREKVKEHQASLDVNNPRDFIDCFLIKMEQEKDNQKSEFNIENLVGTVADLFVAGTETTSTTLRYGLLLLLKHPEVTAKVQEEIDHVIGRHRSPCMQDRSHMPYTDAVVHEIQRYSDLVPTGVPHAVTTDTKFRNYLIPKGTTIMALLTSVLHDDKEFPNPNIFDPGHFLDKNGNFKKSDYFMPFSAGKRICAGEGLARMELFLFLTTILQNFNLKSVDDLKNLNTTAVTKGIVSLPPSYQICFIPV
As to the kind of experiment: Inhibition of human recombinant CYP2C8 expressed in baculovirus-infected insect cells preincubated for 15 mins followed by substrate addition measured after 30 mins by luminescence assay. The data set is classed as ADME. The note with it: recombinant enzyme, 0.5 h.

The target of data set [3] is Potassium voltage-gated channel subfamily A member 5 (Homo sapiens) (UniProt P22460). As to the kind of experiment: Inhibition of human Kv1.5 channel.
Chain of Potassium voltage-gated channel subfamily A member 5 (Homo sapiens) (P22460 whole entry): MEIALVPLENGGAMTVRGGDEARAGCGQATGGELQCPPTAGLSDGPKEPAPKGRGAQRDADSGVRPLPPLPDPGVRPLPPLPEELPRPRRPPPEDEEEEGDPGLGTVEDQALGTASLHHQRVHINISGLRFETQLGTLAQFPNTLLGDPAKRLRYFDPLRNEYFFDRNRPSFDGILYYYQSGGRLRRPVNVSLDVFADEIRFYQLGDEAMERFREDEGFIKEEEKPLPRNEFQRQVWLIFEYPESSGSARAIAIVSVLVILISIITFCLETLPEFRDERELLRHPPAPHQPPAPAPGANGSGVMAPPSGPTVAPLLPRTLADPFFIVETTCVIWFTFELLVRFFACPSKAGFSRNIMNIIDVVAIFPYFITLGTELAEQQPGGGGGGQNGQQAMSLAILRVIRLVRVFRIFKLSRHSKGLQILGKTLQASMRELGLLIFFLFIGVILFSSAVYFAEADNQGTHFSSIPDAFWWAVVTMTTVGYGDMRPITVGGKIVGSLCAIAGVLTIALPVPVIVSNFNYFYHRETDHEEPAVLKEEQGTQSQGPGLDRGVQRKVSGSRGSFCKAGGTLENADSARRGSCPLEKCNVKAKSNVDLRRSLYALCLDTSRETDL

Consider `OC(CNC1CCCCC1)Cn1c2ccc(Br)cc2c2cc(Br)ccc21` (racemic), for which, in data set [1], the concentration peaked (Cmax) at 158 ng/mL. Also, the Vd in data set [2] amounted to 13 L/kg. For the same molecule, in the data set with Plasmodium falciparum, the result was Active. On Cytochrome P450 2C8, the “inhibition (INH)” value is “Active”. Also, the inhibition entry in data set [3] is “inactive”.

Usually Cmax stands for the maximum level reached in the sampled fluid or tissue.

The values above are taken from ChEMBL document CHEMBL3098117, “Identification and optimization of an aminoalcohol-carbazole series with antimalarial properties” (ACS Med Chem Lett, 2013).
